# Patent US9512486B2, “Materials, methods, and systems for treating cancer” (The Institute of Cancer Research: Royal Cancer Hospital, priority 2012, dated 2016)
# Legend:
# Format in all cases: cell-based
# [1] = test system: MCF7 cells transfected with siRNA directed against RAD51D; assay: Olaparib sensitivity after RAD51D silencing, cell viability (Cell TitreGlo), MCF7; settings: siRAD51D vs siCONTROL and siBRCA2, olaparib titration for 7 days, FIG. 3B
# Source text: (§1) This method has clinical utility both for individuals with cancer and their relatives. Cancer patients with RAD51D mutations may benefit from specific therapies such as Poly (ADP-Ribose) Polymerase (PARP) inhibitors, which have shown efficacy in patients with impairment of HR due to mutations in BRCA1 or BRCA2. To investigate this we used RNA interference (RNAi) and assessed the relationship between RAD51D loss of function and the sensitivity of tumor cells to a clinical PARP inhibitor, olaparib (AstraZeneca) 4-[(3-[(4-cyclopropylcarbonyl)piperazin-4-yl]carbonyl)-4-fluorophenyl]methyl(2H)phthalazin-1-one. Referring now to FIG. 3. The effect of RAD51D silencing on olaparib sensitivity. CAL51 (FIG. 3A) or MCF7 (FIG. 3B) cells were transfected with siCONTROL, siRNA directed against RAD51D or siRNA directed against BRCA2 and then treated with olaparib for 7 days before assaying for cell viability. Wild-type CHO cells or CHO cells mutated in RAD51D were treated with olaparib for 7 days before assaying for cell viability (FIG. 3C).
# (§2) Non-silencing BRCA2 and RAD51D SIGENOME siRNAs (Dharmacon, Lafayette, Colo., USA) were used. […] After 7 days continuous culture, cell viability was estimated using Cell TitreGlo reagent (Promega Madison, Wis., USA) and surviving fractions calculated as previously described.
# [2] = test system: CAL51 cells transfected with siRNA directed against RAD51D; assay: Olaparib sensitivity after RAD51D silencing, cell viability (Cell TitreGlo), CAL51; settings: siRAD51D vs siCONTROL and siBRCA2, olaparib titration for 7 days, FIG. 3A
# Source text: as §1, §2
# [3] = test system: CHO cells mutated in RAD51D; assay: Olaparib sensitivity of wild-type versus RAD51D mutated CHO cells, cell viability; settings: CHO RAD51D WT (51D1.3 clone) vs RAD51D deficient CHO (51D1 clone), olaparib for 7 days, FIG. 3C
# Source text: as §1, §2
smiles,measurement,setting,value
"O=C(c1cc(Cc2n[nH]c(=O)c3ccccc23)ccc1F)N1CCN(C(=O)C2CC2)CC1 [olaparib, 4-[(3-[(4-cyclopropylcarbonyl)piperazin-4-yl]carbonyl)-4-fluorophenyl]methyl(2H)phthalazin-1-one]",olaparib sensitivity (Surviving Fraction),[1],olaparib sensitivity of a magnitude similar to that achieved using silencing of BRCA2
same,olaparib sensitivity (Surviving Fraction),[2],olaparib sensitivity of a magnitude similar to that achieved using silencing of BRCA2
same,olaparib sensitivity (Surviving Fraction),[3],RAD51D selective effect
same,olaparib sensitivity (Surviving Fraction),[3]; listed as Olaparib,particularly effective in causing the death of cells that have an inactivating mutation of RAD51D
